In ChEMBL document CHEMBL1208760, “New antifungal peptides. Synthesis, bioassays and initial structure prediction by CD spectroscopy” (2010):

Legend:
Type in all cases: functional
Details in all cases: read-out: GI
Candida albicans [1] = assay: Antifungal activity against Candida albicans ATCC 10231 assessed as inhibition of fungal growth at 50 uM
Candida albicans [2] = assay: Antifungal activity against Candida albicans ATCC 10231 assessed as inhibition of fungal growth at 200 uM
Candida albicans [3] = assay: Antifungal activity against Candida albicans ATCC 10231 assessed as inhibition of fungal growth at 25 uM
Cryptococcus neoformans [4] = assay: Antifungal activity against Cryptococcus neoformans ATCC 32264 assessed as inhibition of fungal growth at 12.5 uM
Cryptococcus neoformans [5] = assay: Antifungal activity against Cryptococcus neoformans ATCC 32264 assessed as inhibition of fungal growth at 6.25 uM
Candida albicans [6] = assay: Antifungal activity against Candida albicans ATCC 10231 assessed as inhibition of fungal growth at 6.25 uM
Cryptococcus neoformans [7] = assay: Antifungal activity against Cryptococcus neoformans ATCC 32264 assessed as inhibition of fungal growth at 25 uM
Candida albicans [8] = assay: Antifungal activity against Candida albicans ATCC 10231 assessed as inhibition of fungal growth at 12.5 uM
Candida albicans [9] = assay: Antifungal activity against Candida albicans ATCC 10231 assessed as inhibition of fungal growth at 100 uM
Cryptococcus neoformans [10] = assay: Antifungal activity against Cryptococcus neoformans ATCC 32264 assessed as inhibition of fungal growth at 200 uM
Cryptococcus neoformans [11] = assay: Antifungal activity against Cryptococcus neoformans ATCC 32264 assessed as inhibition of fungal growth at 50 uM
Cryptococcus neoformans [12] = assay: Antifungal activity against Cryptococcus neoformans ATCC 32264 assessed as inhibition of fungal growth at 100 uM

Row | Compound | inhibition of growth at 50 µM (Candida albicans [1]) | inhibition of growth at 200 µM (Candida albicans [2]) | inhibition of growth at 25 µM (Candida albicans [3]) | inhibition of growth at 12.5 µM (Cryptococcus neoformans [4]) | inhibition of growth at 6.25 µM (Cryptococcus neoformans [5]) | inhibition of growth at 6.25 µM (Candida albicans [6]) | inhibition of growth at 25 µM (Cryptococcus neoformans [7]) | inhibition of growth at 12.5 µM (Candida albicans [8]) | inhibition of growth at 100 µM (Candida albicans [9]) | inhibition of growth at 200 µM (Cryptococcus neoformans [10]) | inhibition of growth at 50 µM (Cryptococcus neoformans [11]) | inhibition of growth at 100 µM (Cryptococcus neoformans [12])
1 | H-KKWKMRRNQFWIKIQR-NH2 | 100% | 100% | 25.8% | 89.5% | 55.9% | 0% | 94.1% | 12% | 100% | 100% | 99% | 100%
2 | C[C@@H]1[C@H](O)[C@@H](C)/C=C/C=C/C=C/C=C/C=C/C=C/C=C/[C@H](O[C@@H]2O[C@H](C)[C@@H](O)[C@H](N)[C@@H]2O)C[C@@H]2O[C@](O)(C[C@@H](O)C[C@@H](O)[C@H](O)CC[C@@H](O)C[C@@H](O)CC(=O)O[C@H]1C)C[C@H](O)[C@H]2C(=O)O [AMPHOTERICIN B] | 100% | 100% | 100% | 100% | 100% | 100% | 100% | 100% | 100% | 100% | 100% | 100%
3 | CC[C@H](C)[C@H](NC(=O)[C@H](CCCCN)NC(=O)[C@@H]1CCCN1C(=O)[C@H](CCC(N)=O)NC(=O)[C@@H](N)CCCNC(=N)N)C(=O)N[C@H](Cc1c[nH]c2ccccc12)C(=O)N[C@@H](Cc1ccccc1)C(=O)N1CCC[C@H]1C(=O)N[C@@H](CC(N)=O)C(=O)N[C@@H](CCCNC(=N)N)C(=O)N[C@@H](CCCNC(=N)N)C(=O)N[C@@H](CCCCN)C(=O)N1CCC[C@H]1C(=O)N[C@@H](Cc1c[nH]c2ccccc12)C(=O)N[C@@H](CCCCN)C(=O)N[C@@H](CCCCN)C(N)=O | 41.4% | 100% | 15.4% | 100% | 79.9% | 0% | 100% | 6.1% | 100% | 100% | 100% | 100%
4 | CC(=O)N1CCN(c2ccc(OCC3COC(Cn4ccnc4)(c4ccc(Cl)cc4Cl)O3)cc2)CC1 (configuration not stated) [KETOCONAZOLE] | 100% | 100% | 100% | 100% | 100% | 100% | 100% | 100% | 100% | 100% | 100% | 100%
5 | CC[C@H](C)[C@H](NC(=O)[C@H](CCCCN)NC(=O)[C@@H](NC(=O)[C@H](CCC(N)=O)NC(=O)[C@@H](N)CCCNC(=N)N)[C@@H](C)CC)C(=O)N[C@@H](Cc1c[nH]c2ccccc12)C(=O)N[C@@H](Cc1ccccc1)C(=O)N[C@@H](CCC(N)=O)C(=O)N[C@@H](CC(N)=O)C(=O)N[C@@H](CCCNC(=N)N)C(=O)N[C@@H](CCCNC(=N)N)C(=O)N[C@@H](CCSC)C(=O)N[C@@H](CCCCN)C(=O)N[C@@H](Cc1c[nH]c2ccccc12)C(=O)N[C@@H](CCCCN)C(=O)N[C@@H](CCCCN)C(N)=O [PENETRATIN] | 95% | 100% | 91% | 90% | 60% | 0% | 100% | 4% | 100% | 100% | 100% | 100%
6 | CC[C@H](C)[C@H](NC(=O)[C@H](CCCCN)NC(=O)[C@@H](NC(=O)[C@H](CCC(N)=O)NC(=O)[C@H](CCCNC(=N)N)NC(=O)[C@H](Cc1c[nH]c2ccccc12)NC(=O)[C@H](CCCNC(=N)N)NC(=O)[C@H](Cc1ccccc1)NC(=O)[C@@H](N)Cc1cnc[nH]1)[C@@H](C)CC)C(=O)N[C@@H](Cc1c[nH]c2ccccc12)C(=O)N[C@@H](Cc1ccccc1)C(=O)N[C@@H](CCC(N)=O)C(=O)N[C@@H](CC(N)=O)C(=O)N[C@@H](CCCNC(=N)N)C(=O)N[C@@H](CCCNC(=N)N)C(=O)N[C@@H](CCSC)C(=O)N[C@@H](CCCCN)C(=O)N[C@@H](Cc1c[nH]c2ccccc12)C(=O)N[C@@H](CCCCN)C(=O)N[C@@H](CCCCN)C(N)=O | 93.4% | 100% | 4.86% | 74.3% | 51% | 0.9% | 85.9% | 3.85% | 100% | 100% | 87.3% | 100%
